Patent US20170305894A1, “PPAR AGONISTS, COMPOUNDS, PHARMACEUTICAL COMPOSITIONS, AND METHODS OF USE THEREOF” (priority 2014, published 2017)
Where two headings read alike, the source gives them in different places.

Columns and labels:
[1] = target: T1, Human PPARδ (Homo sapiens, UniProt Q03181); experiment: PPARδ activity screen: GAL4-PPARδ LBD luciferase transactivation in CV-1 cells; type: cell-based
T1 construct: (PPARδ amino acid 128 to C-terminus); expressed in transfected cells; host or cells: CV-1 cells
T1 sequence (Q03181 128-441 limits assumed): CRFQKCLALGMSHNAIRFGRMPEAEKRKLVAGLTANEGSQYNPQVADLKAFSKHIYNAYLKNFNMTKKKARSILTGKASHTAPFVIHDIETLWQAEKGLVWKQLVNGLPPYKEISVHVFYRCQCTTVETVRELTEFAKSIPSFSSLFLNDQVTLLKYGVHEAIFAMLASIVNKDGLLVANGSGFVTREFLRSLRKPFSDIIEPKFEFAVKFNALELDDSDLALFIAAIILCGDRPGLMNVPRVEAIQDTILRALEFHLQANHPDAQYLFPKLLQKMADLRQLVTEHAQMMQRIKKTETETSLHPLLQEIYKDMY
Protocol: CV-1 cells were grown in DMEM+10% charcoal stripped FCS. Cells were seeded into 384-well plates the day before transfection to give a confluency of 50-80% at transfection. A total of […] containing 0.64 micrograms pCMX-PPARDelta LBD, 0.1 micrograms pCMXβGal, 0.08 micrograms pGLMH2004 reporter and 0.02 micrograms pCMX empty vector was transfected per well using FuGene transfection reagent according to the manufacturer's instructions (Roche). Cells were allowed to express protein for 48 h followed by addition of compound.
Human PPARδ was used to PCR amplify the PPARδ LBD. […] Ensuing fusions were verified by sequencing.
Compounds: All compounds were dissolved in DMSO and diluted 1:1000 upon addition to the cells. Compounds were tested in quadruple in concentrations ranging from 0.001 to 100 μM. Cells were treated with compound for 24 h followed by luciferase assay. Each compound was tested in at least two separate experiments.
The activity of a compound is calculated as fold induction compared to an untreated sample. For each compound the efficacy (maximal activity) is given as a relative activity compared to GW501516, a PPARδ agonist. […] EC50 values were calculated via non-linear regression using GraphPad PRISM (GraphPad Software, San Diego, Calif.).

[2] = target: T2, PPARdelta (Homo sapiens, UniProt Q03181); experiment: NHR Protein Interaction Biosensor assay (PathHunter NHR cell lines, agonist format); type: cell-based
T2 construct: expressed in transfected cells
T2 sequence (Q03181 1-441): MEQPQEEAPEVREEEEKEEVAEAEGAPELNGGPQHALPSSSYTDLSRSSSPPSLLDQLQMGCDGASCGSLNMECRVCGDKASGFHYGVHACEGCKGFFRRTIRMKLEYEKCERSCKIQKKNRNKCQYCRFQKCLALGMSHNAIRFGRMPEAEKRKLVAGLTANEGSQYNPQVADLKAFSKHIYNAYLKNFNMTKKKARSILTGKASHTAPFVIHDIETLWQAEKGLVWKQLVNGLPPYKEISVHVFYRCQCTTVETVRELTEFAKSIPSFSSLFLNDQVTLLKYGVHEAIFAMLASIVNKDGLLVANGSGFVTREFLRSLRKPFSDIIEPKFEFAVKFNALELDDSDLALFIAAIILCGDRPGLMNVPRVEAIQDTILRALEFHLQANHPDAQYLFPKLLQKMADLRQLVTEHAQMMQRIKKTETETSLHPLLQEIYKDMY
Protocol: (2) Nuclear Hormone Receptor (NHR) Assays
PathHunter NHR cell lines were expanded from freezer stocks according to standard procedures. Cells were seeded in a total volume of 20 μL into white walled, 384-well microplates and incubated at 37° C. for the appropriate time prior to testing. Assay media contained charcoal-dextran filtered serum to reduce the level of hormones present.
For agonist determination, cells were incubated with sample to induce response. Intermediate dilution of sample stocks was performed to generate 5× sample in assay buffer. […] Final assay vehicle concentration was 1%.
Microplates were read following signal generation with a PerkinElmer Envision™ instrument for chemiluminescent signal detection.
Compound activity was analyzed using CBIS data analysis suite (ChemInnovation, CA). For agonist mode assays, percentage activity was calculated using the following formula:
% Activity=100%×(mean RLU of test sample−mean RLU of vehicle control)/(mean MAX control ligand−mean RLU of vehicle control).

[3] = CV-1 cells, GAL4-PPARδ LBD luciferase reporter, compound for 24 h, read-out: PPAR delta transactivation EC50
[4] = PathHunter NHR cells, agonist format, read-out: NHR Protein Interaction Biosenor assay, PPARdelta EC50

Compound	EC50 [1, 3] [nM]	EC50 [2, 4] [nM]	EC50 [2] [nM]	EC50 [1] [nM]
Cc1cnc(-c2ccc(-c3ccco3)cc2)n1Cc1ccccc1OCCCCCC(=O)O [Compound 8a, 6-(2-((2-(4-(furan-2-yl)phenyl)-5-methyl-1H-imidazol-1-yl)methyl)phenoxy) hexanoic acid]	0.9	< 0.51	–	–
Cc1ccc(-c2ccc(-c3ncc(C)n3Cc3ccccc3OCCCCCC(=O)O)cc2)o1 [Compound 8b, 6-(2-((5-methyl-2-(4-(5-methylfuran-2-yl)phenyl)-1H-imidazol-1-yl)methyl)phenoxy)hexanoic acid]	1.2	0.58	–	–
Cc1cnc(-c2ccc(-c3ccco3)cc2)n1Cc1ccccc1OCCCCC(C)(C)C(=O)O [Compound 8d, 6-(2-((2-(4-(furan-2-yl)phenyl)-5-methyl-1H-imidazol-1-yl)methyl)phenoxy)-2,2-dimethylhexanoic acid]	4.5	0.84	–	–
C/C(=C\COc1ccccc1Cn1c(C)cnc1-c1ccc(-c2ccco2)cc1)CCC(=O)O [Compound 8e, (E)-6-(2-((2-(4-(furan-2-yl)phenyl)-5-methyl-1H-imidazol-1-yl)methyl)phenoxy)-4-methylhex-4-enoic acid]	1	0.79	–	–
Cc1cnc(-c2ccc(C#CC(F)(F)F)cc2)n1Cc1ccccc1OCCCCCC(=O)O [Compound 8g, 6-(2-((5-methyl-2-(4-(3,3,3-trifluoroprop-1-yn-1-yl)phenyl)-1H-imidazol-1-yl)methyl)phenoxy)hexanoic acid]	8.3	0.65	–	–
Cc1cnc(-c2ccc(OC(F)(F)F)cc2)n1Cc1ccccc1OCCCCCC(=O)O [Compound 8h, 6-(2-((5-methyl-2-(4-(trifluoromethoxy)phenyl)-1H-imidazol-1-yl)methyl)phenoxy)hexanoic acid]	0.94	1.49	–	–
Cc1cn(Cc2ccccc2OCCCCCC(=O)O)c(-c2ccc(-c3ccco3)cc2)n1 [Compound 8i, 6-(2-((2-(4-(furan-2-yl)phenyl)-4-methyl-1H-imidazol-1-yl)methyl)phenoxy) hexanoic acid]	15.7	–	13.4	–
Cc1cn(Cc2ccccc2OCCCCCC(=O)O)c(-c2ccc(-c3ccc(C)o3)cc2)n1 [Compound 8j, 6-(2-((4-methyl-2-(4-(5-methylfuran-2-yl)phenyl)-1H-imidazol-1-yl)methyl)phenoxy)hexanoic acid]	56	5.01	–	–
Cc1cn(Cc2ccccc2OCCCCC(C)(C)C(=O)O)c(-c2ccc(-c3ccco3)cc2)n1 [Compound 8k, 6-(2-((2-(4-(furan-2-yl)phenyl)-4-methyl-1H-imidazol-1-yl)methyl)phenoxy)-2,2-dimethylhexanoic acid]	58	16.5	–	–
O=C(O)CCCCCOc1ccccc1Cn1ccnc1-c1ccc(-c2ccco2)cc1 [Compound 8l, 6-(2-((2-(4-(furan-2-yl)phenyl)-1H-imidazol-1-yl)methyl)phenoxy)hexanoic acid]	9.5	1.28	–	–
Cc1nc(-c2ccc(-c3ccco3)cc2)c(Cc2ccccc2OCCCCCC(=O)O)s1 [Compound 8m, 6-(2-((4-(4-(furan-2-yl)phenyl)-2-methylthiazol-5-yl)methyl)phenoxy) hexanoic acid]	–	–	1.27	18
Cn1cc(Cc2ccccc2OCCCCCC(=O)O)c(-c2ccc(-c3ccco3)cc2)n1 [Compound 8n, 6-(2-((3-(4-(furan-2-yl)phenyl)-1-methyl-1H-pyrazol-4-yl)methyl)phenoxy)hexanoic acid]	–	–	19.9	117
C/C(=C\COc1ccccc1Cc1c(C)noc1-c1ccc(-c2ccco2)cc1)CCC(=O)O [Compound 8o, (E)-6-(2-((5-(4-(furan-2-yl)phenyl)-3-methylisoxazol-4-yl)methyl)phenoxy)-4-methylhex-4-enoic acid]	–	–	9.12	2.9
C/C(=C\COc1ccccc1Cc1c(C)n[nH]c1-c1ccc(-c2ccco2)cc1)CCC(=O)O [Compound 8p, (E)-6-(2-((5-(4-(furan-2-yl)phenyl)-3-methyl-1H-pyrazol-4-yl)methyl)phenoxy)-4-methylhex-4-enoic acid]	–	–	4.97	1.2
Cc1cnc(-c2ccc(-c3ccco3)cc2)n1Cc1ccccc1CCCCCCC(=O)O [Compound 8q, 7-(2-((2-(4-(furan-2-yl)phenyl)-5-methyl-1H-imidazol-1-yl)methyl)phenyl)heptanoic acid]	3.1	13	–	–
C/C(=C\COc1ccccc1Cn1c(C)cnc1-c1ccc(Cl)nc1)CCC(=O)O [Compound 8r, (E)-6-(2-((2-(6-chloropyridin-3-yl)-5-methyl-1H-imidazol-1-yl)methyl)phenoxy)-4-methylhex-4-enoic acid]	5.5	–	–	–
